Measured values reported in PMC3857288, “Characterization of Amylolysin, a Novel Lantibiotic from Bacillus amyloliquefaciens GA1” (PLoS ONE, 2013).
Where two headings read alike, the source gives them in different places.

Key:
[1] = Direct interaction with [14C] lipid II, TLC migration; assay type: binding; details: [14C] lipid II 2.5 µM, amylolysin 0.2 µM, DMSO/1-octanol 60/40 v/v, 1 hour, room temperature, Molecular Imager FX
Procedure: (§1) Radiolabelled UDP-MurNac-pentapeptide, thereafter [^14C] lipid II, was prepared in vitro using E. coli K12 purified membrane from UDP-GlcNac and UDP-MurNAc-L-Ala-D-Glu-meso-DAP-D-[^14C]Ala-D-[^14C]Ala and subsequently purified as previously described. Inhibition of glycosyl transferase reaction was performed as described elsewhere with some modifications. Briefly, [^14C] lipid II (2.5µM; 0.125µCi nmol^-1), amylolysin (0.2 µM), His-tag PBP1bγ from E. coli (15 nM) were incubated in 25mM Tris-HCl (pH7,5), 0,5 % decyl PEG, 10 mM MgCl2, 12% 1-octanol, 25 % DMSO for 1 hour at 30 °C. The reaction products were separated by thin layer chromatography (TLC) on silica plate (SilG, […], Macherey-Nagel, Duren, Germany) using a mixture of methanol/chloroform/ammoniac/water (88/48/10/1, v/v/v/v) as mobile phase. For interaction experiment, [^14C] lipid II (2.5 µM; 0.125µCinmol^-1) and amylolysin (0.2 µM) were incubated in DMSO/1-octanol mixture (60/40 v/v) for 1 hour at room temperature before being subjected to TCL using a butanol/acetic acid/pyridine/water mixture (15/3/12/10, v/v/v/v) as mobile phase. The radioactive compounds were detected and analyzed with a Molecular Imager FX system (Biorad Laboratories).

meat proteases = details: cited from earlier work
Excerpt: (§2) The majority of the bacteriocins described to date are from lactic bacteria with nisin, used commercially in many countries as preservative in food products, being the best characterized compound. […] In regards to their high level of protease production, Bacillus sp. has been considered as interesting alternative source for antimicrobial peptides with increased protease tolerance. In our laboratory, B. amyloliquefaciens ...

[2] = system: Staphylococcus aureus ATCC 43300 (methicillin resistant); assay: MIC, microdilution (CLSI); assay type: cell-based; details: methicillin resistant strain; BH medium, 37 °C, 24-well plates, seeded at OD600 0.1, 24 h, amylolysin 0.1-2.8 µM, OD600 read-out, triplicate
Procedure: (§3) Minimal inhibitory concentration (MIC) was determined for an array of bacterial and yeast strains by a microdilution method following the Clinical and Laboratory Standard Institute (CLSI) recommended procedure. Briefly, the different indicator strains were aerobically grown in 24-wells culture plates in the presence of purified amylolysin at concentration ranging from 0.1 to 2.8 µM in the appropriate medium and temperature conditions as stipulated in table 1. Each well was seeded at an OD600 of 0.1. After 24 h of incubation, cell growth was estimated based on OD600 measurements. The MIC values were defined as the lowest amylolysin concentration that is able to inhibit cell growth. Each experiment was performed in triplicate.

[3] = system: Listeria innocua ATCC33090; assay: MIC, microdilution (CLSI); assay type: cell-based; details: BH medium, 37 °C, 24-well plates, seeded at OD600 0.1, 24 h, amylolysin 0.1-2.8 µM, OD600 read-out, triplicate
Procedure: as §3

[4] = system: Streptococcus agalactiae RFB141; assay: MIC, microdilution (CLSI); assay type: cell-based; details: clinical isolate; BH medium, 37 °C, 24-well plates, seeded at OD600 0.1, 24 h, amylolysin 0.1-2.8 µM, OD600 read-out, triplicate
Procedure: as §3

[5] = system: Staphylococcus epidermis ATCC 1228; assay: MIC, microdilution (CLSI); assay type: cell-based; details: BH medium, 37 °C, 24-well plates, seeded at OD600 0.1, 24 h, amylolysin 0.1-2.8 µM, OD600 read-out, triplicate
Procedure: as §3

[6] = system: Enterococcus faecalis ATCC 29212; assay: MIC, microdilution (CLSI); assay type: cell-based; details: BH medium, 37 °C, 24-well plates, seeded at OD600 0.1, 24 h, amylolysin 0.1-2.8 µM, OD600 read-out, triplicate
Procedure: as §3

[7] = system: Lactobacillus plantarum RFB138; assay: MIC, microdilution (CLSI); assay type: cell-based; details: lab stock; MRS medium, 27 °C, 24-well plates, seeded at OD600 0.1, 24 h, amylolysin 0.1-2.8 µM, OD600 read-out, triplicate
Procedure: as §3

[8] = system: Bacillus megaterium RFB124; assay: MIC, microdilution (CLSI); assay type: cell-based; details: LB medium, 37 °C, 24-well plates, seeded at OD600 0.1, 24 h, amylolysin 0.1-2.8 µM, OD600 read-out, triplicate
Procedure: as §3

Weissella sp RFB139 = assay: MIC, microdilution (CLSI); assay type: cell-based; details: lab stock; MRS medium, 27 °C, 24-well plates, seeded at OD600 0.1, 24 h, amylolysin 0.1-2.8 µM, OD600 read-out, triplicate
Procedure: as §3

Listeria ivanovii RFB160 = assay: MIC, microdilution (CLSI); assay type: cell-based; details: BH medium, 37 °C, 24-well plates, seeded at OD600 0.1, 24 h, amylolysin 0.1-2.8 µM, OD600 read-out, triplicate
Procedure: as §3

[9] = system: Listeria monocytogenes LMG 21263; assay: MIC, microdilution (CLSI); assay type: cell-based; details: BH medium, 37 °C, 24-well plates, seeded at OD600 0.1, 24 h, amylolysin 0.1-2.8 µM, OD600 read-out, triplicate
Procedure: as §3

[10] = system: Enterococcus faecium RFB128; assay: MIC, microdilution (CLSI); assay type: cell-based; details: lab stock; BH medium, 37 °C, 24-well plates, seeded at OD600 0.1, 24 h, amylolysin 0.1-2.8 µM, OD600 read-out, triplicate
Procedure: as §3

[11] = system: Bacillus subtilis ATCC 6633; assay: MIC, microdilution (CLSI); assay type: cell-based; details: LB medium, 37 °C, 24-well plates, seeded at OD600 0.1, 24 h, amylolysin 0.1-2.8 µM, OD600 read-out, triplicate
Procedure: as §3

[12] = system: Listeria monocytogenes LMG 23905; assay: MIC, microdilution (CLSI); assay type: cell-based; details: BH medium, 37 °C, 24-well plates, seeded at OD600 0.1, 24 h, amylolysin 0.1-2.8 µM, OD600 read-out, triplicate
Procedure: as §3

Bacillus cereus RFB125 = assay: MIC, microdilution (CLSI); assay type: cell-based; details: clinical isolate; LB medium, 37 °C, 24-well plates, seeded at OD600 0.1, 24 h, amylolysin 0.1-2.8 µM, OD600 read-out, triplicate
Procedure: as §3

[13] = system: Listeria monocytogenes LM2234; assay: MIC, microdilution (CLSI); assay type: cell-based; details: clinical isolate; BH medium, 37 °C, 24-well plates, seeded at OD600 0.1, 24 h, amylolysin 0.1-2.8 µM, OD600 read-out, triplicate
Procedure: as §3

[14] = system: Staphylococcus aureus ATCC 25923; assay: MIC, microdilution (CLSI); assay type: cell-based; details: BH medium, 37 °C, 24-well plates, seeded at OD600 0.1, 24 h, amylolysin 0.1-2.8 µM, OD600 read-out, triplicate
Procedure: as §3

[15] = system: Micrococcus luteus ATCC 9341; assay: MIC, microdilution (CLSI); assay type: cell-based; details: BH medium, 37 °C, 24-well plates, seeded at OD600 0.1, 24 h, amylolysin 0.1-2.8 µM, OD600 read-out, triplicate
Procedure: as §3

[16] = system: Staphylococcus aureus RFB127; assay: MIC, microdilution (CLSI); assay type: cell-based; details: lab stock; BH medium, 37 °C, 24-well plates, seeded at OD600 0.1, 24 h, amylolysin 0.1-2.8 µM, OD600 read-out, triplicate
Procedure: as §3

[17] = system: Enterococcus faecalis RFB129; assay: MIC, microdilution (CLSI); assay type: cell-based; details: clinical isolate; BH medium, 37 °C, 24-well plates, seeded at OD600 0.1, 24 h, amylolysin 0.1-2.8 µM, OD600 read-out, triplicate
Procedure: as §3

Listeria innocua RFB159 = assay: MIC, microdilution (CLSI); assay type: cell-based; details: clinical isolate; BH medium, 37 °C, 24-well plates, seeded at OD600 0.1, 24 h, amylolysin 0.1-2.8 µM, OD600 read-out, triplicate
Procedure: as §3

[18] = system: L. monocytogenes (three clinical or food isolates); assay: MIC, microdilution (CLSI), summary for three isolates; assay type: cell-based, Listeria monocytogenes; details: summary value of the text for the three L. monocytogenes isolates tested; BH medium, 37 °C, 24 h, triplicate
Procedure: as §3

[19] = system: His-tag PBP1bγ from E. coli; assay: Inhibition of the transglycosylation (glycosyl transferase) reaction, TLC of [14C] lipid II; assay type: biochemical; details: [14C] lipid II 2.5 µM, amylolysin 0.2 µM, PBP1bγ 15 nM, 25 mM Tris-HCl pH 7.5, 0.5 % decyl PEG, 10 mM MgCl2, 12% 1-octanol, 25 % DMSO, 1 hour, 30 °C
Procedure: as §1

[20] = assay type: physicochemical; details: agar diffusion, M. luteus ATCC 9341
Procedure: To evaluate sensitivity to proteases, purified amylolysin samples were quantified by RP-HPLC after 24h of incubation at 37°C with proteinase K and pronase (10 µg/ml, Sigma-Aldrich). Heat stability was evaluated after incubation for 60 min at various temperatures (25, 55, 65, 75 and 100 °C) whereas pH sensitivity was evaluated after a 1h-incubation in 200 mM HCl/KCl buffer (pH 2-3), acetate buffer (pH 4-6) and Tris buffer (pH 7-9). After those treatments, the remaining amylolysin activity was determined using the agar diffusion assays as described elsewhere, using Micrococcus luteus ATCC 9341 as an indicator strain.

[21] = above pH 6; cited from earlier work
Excerpt: as §2

For amylolysin, the “direct amylolysin-lipid II interaction (delay of migration of the complex on TLC)” value [1] is listed as “direct interaction between the two partners”, the “sensitivity to meat proteases” value (meat proteases) is listed as “less sensitive to meat proteases than nisin” and the MIC [2] is listed as 0.4 µM. For the same substance, the MIC [3] was 0.7 µM, the MIC [4] was 2.8 µM and the MIC [5] was 2.8 µM. It also gave an MIC [6] of 1.4 µM, an MIC [7] of over 2.8 µM and an MIC [8] of 0.4 µM. It also gave an MIC (Weissella sp RFB139) of 2.8 µM, an MIC (Listeria ivanovii RFB160) of 0.8 µM and an MIC [9] of 0.5 µM. The MIC [10] was 0.1 µM, the MIC [11] was 1.4 µM and the MIC [12] was 0.4 µM. It also gave an MIC (Bacillus cereus RFB125) of 0.2 µM, an MIC [13] of 0.4 µM and an MIC [14] of 2.8 µM. For the same substance, the MIC [15] was 0.7 µM, the MIC [16] was 1.4 µM and the MIC [17] was 0.7 µM. The MIC (Listeria innocua RFB159) was 0.7 µM, the MIC [18] was about 0.5 µM and the “inhibition of the transglycosylation reaction (lipid II polymerisation)” value [19] was “Inhibition of the transglycosylation reaction”. For the same substance, the “reduction of biological activity” value ([20]; 100 °C for 1 hour) was 7%, the antimicrobial activity reduction ([20]; acidic condition, pH 2, 1 h) was 11% and the antimicrobial activity reduction ([20]; alkaline condition, pH 9, 1 h) was 7%.
For nisin, the solubility [21] is given as “low solubility above pH 6”.
